Columns and labels:
Test in all cases: in vitro HDAC inhibition assay (fluorescence)
Assay type in all cases: biochemical
HDAC1 = HDAC1 (Homo sapiens, UniProt Q13547)
Description: (§1) Briefly, all of the compounds are dissolved in DMSO. A series of dilutions of the compounds were prepared with 10% DMSO in HDAC assay buffer and 5 μl of the dilution was added to a 50 μl reaction so that the final concentration of DMSO is 1% in all of reactions. The compounds were pre-incubated in duplicate at RT for 1 hour in a mixture containing HDAC assay buffer, 5 μg BSA, HDAC enzyme (see Table 7) and a the particular HDACi. After 1 hour, the enzymatic reactions were initiated by the addition of HDAC substrate (BPS Bioscience) to a final concentration of 10 μM or 2 μM. The enzymatic reaction proceeded for 30 minutes at 37° C.
(§2) HDAC activity assays were performed in duplicates at each concentration. The fluorescent intensity data were analyzed using the computer software, Graphpad Prism. In the absence of the compound, the fluorescent intensity (Ft) in each data set was defined as 100% activity. In the absence of HDAC, the fluorescent intensity (Fb) in each data set was defined as 0% activity. The percent activity in the presence of each compound was calculated according to the following equation: % activity=(F−Fb)/(Ft−Fb), where F=the fluorescent intensity in the presence of the compound.
(§3) The values of % activity versus a series of compound concentrations were then plotted using non-linear regression analysis of Sigmoidal dose-response curve generated with the equation Y=B+(T−B)/1+10^((Log EC50-X)×Hill Slope), where Y=percent activity, B=minimum percent activity, T=maximum percent activity, X=logarithm of compound and Hill Slope=slope factor or Hill coefficient. The IC50 value was determined by the concentration causing a half-maximal percent activity.

HDAC11 = biological target: T1, HDAC11 (Homo sapiens, UniProt Q96DB2)
T1 sequence (Q96DB2 1-347): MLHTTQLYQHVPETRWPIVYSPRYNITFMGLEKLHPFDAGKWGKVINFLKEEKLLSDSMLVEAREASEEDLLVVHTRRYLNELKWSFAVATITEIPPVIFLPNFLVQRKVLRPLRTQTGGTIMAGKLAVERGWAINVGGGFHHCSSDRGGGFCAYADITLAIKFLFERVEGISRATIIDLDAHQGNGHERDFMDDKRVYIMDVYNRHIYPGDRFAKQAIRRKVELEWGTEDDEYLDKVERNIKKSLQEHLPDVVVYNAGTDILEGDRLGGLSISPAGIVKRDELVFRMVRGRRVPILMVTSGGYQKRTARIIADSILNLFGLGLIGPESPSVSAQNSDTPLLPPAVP
Description: as §1, §2, §3

HDAC4 = HDAC4 (Homo sapiens, UniProt P56524); settings: for inhibition at 100 µM: read-out: Percentage Inhibition HDAC4
Description: as §1, §2, §3

HDAC5 = HDAC5 (Homo sapiens, UniProt Q9UQL6)
Description: as §1, §2, §3

HDAC7 = biological target: T2, HDAC7 (Homo sapiens, UniProt Q8WUI4); settings: for inhibition at 100 µM: read-out: Percentage Inhibition HDAC7
T2 sequence (Q8WUI4 1-952): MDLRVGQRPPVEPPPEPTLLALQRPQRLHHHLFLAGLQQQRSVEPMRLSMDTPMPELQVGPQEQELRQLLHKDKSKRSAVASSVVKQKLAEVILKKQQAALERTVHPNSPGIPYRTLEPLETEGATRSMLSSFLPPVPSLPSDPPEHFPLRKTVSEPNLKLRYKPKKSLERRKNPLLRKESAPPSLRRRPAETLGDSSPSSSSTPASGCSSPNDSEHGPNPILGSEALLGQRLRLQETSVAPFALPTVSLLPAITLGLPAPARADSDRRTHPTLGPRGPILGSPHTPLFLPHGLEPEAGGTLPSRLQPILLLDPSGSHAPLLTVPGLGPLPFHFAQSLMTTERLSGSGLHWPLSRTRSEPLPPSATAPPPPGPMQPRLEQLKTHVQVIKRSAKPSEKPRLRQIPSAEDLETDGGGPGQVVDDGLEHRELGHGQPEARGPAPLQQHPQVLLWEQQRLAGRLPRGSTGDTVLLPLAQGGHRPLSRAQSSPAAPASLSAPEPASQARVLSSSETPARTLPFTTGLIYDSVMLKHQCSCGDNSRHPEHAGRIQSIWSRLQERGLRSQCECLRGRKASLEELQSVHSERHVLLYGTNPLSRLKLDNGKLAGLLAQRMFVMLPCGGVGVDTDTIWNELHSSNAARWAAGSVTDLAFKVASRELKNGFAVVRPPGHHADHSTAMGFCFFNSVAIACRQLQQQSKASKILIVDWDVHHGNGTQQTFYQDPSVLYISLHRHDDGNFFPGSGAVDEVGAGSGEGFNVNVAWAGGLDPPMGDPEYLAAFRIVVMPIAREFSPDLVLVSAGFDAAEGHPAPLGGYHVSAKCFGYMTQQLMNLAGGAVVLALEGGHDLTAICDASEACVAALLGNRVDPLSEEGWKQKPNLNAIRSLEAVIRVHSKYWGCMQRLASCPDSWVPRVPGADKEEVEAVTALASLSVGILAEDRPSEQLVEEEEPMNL
Description: as §1, §2, §3

HDAC9 = HDAC9 (Homo sapiens, UniProt Q9UKV0); settings: for inhibition at 100 µM: read-out: Percentage Inhibition HDAC9
Description: as §1, §2, §3

Chain of HDAC4 (P56524 whole entry): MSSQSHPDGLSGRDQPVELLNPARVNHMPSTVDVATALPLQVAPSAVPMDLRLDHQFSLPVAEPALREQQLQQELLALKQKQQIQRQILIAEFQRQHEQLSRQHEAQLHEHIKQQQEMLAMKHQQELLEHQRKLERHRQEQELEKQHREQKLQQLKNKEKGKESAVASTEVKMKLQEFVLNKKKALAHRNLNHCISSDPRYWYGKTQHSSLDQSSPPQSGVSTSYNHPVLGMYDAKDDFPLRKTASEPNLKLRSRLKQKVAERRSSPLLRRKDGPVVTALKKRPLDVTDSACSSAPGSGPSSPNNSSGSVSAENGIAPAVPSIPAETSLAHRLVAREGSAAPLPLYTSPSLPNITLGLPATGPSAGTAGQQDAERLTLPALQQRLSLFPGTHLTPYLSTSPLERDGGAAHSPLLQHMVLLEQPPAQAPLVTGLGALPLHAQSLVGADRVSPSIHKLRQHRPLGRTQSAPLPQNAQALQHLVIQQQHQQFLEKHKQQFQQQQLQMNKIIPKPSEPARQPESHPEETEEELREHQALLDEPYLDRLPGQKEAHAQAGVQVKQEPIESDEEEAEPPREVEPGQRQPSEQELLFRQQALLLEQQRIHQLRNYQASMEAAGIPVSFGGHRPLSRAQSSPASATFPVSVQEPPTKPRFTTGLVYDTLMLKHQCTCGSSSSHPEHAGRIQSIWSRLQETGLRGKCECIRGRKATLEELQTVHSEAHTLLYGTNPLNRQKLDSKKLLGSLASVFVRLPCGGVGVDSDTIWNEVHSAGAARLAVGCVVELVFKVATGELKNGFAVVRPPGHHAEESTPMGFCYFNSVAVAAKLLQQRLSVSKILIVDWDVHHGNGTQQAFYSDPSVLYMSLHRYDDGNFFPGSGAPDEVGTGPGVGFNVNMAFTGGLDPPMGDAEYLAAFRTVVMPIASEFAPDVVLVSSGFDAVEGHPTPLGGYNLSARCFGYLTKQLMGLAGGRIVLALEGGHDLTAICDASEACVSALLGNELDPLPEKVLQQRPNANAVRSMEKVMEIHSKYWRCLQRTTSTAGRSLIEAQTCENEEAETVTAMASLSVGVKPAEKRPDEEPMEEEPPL
Chain of HDAC9 (Q9UKV0 whole entry): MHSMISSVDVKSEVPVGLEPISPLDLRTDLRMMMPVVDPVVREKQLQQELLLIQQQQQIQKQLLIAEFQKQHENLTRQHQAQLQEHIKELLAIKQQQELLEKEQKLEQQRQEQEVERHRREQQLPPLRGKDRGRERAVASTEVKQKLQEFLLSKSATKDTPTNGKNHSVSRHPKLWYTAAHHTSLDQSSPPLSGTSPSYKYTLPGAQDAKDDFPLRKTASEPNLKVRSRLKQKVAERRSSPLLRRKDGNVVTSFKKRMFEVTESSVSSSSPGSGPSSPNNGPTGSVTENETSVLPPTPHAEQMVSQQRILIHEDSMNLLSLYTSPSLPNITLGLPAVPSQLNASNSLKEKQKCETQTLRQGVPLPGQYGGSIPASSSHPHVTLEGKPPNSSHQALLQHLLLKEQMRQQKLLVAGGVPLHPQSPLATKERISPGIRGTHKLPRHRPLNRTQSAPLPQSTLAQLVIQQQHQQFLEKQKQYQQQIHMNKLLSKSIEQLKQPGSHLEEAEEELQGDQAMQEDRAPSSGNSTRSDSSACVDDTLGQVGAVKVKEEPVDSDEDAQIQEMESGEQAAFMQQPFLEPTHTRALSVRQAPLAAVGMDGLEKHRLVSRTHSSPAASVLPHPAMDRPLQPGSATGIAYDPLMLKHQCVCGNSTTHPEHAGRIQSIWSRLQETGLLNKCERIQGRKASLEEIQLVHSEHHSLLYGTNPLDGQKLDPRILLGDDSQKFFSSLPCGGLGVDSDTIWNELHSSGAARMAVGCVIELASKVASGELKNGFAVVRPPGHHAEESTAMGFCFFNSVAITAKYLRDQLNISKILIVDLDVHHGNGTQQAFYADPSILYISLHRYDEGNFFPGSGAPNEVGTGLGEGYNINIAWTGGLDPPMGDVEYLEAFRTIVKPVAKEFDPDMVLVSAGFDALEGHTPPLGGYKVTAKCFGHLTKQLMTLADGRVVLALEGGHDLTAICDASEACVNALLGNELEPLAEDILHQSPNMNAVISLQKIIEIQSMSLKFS
Chain of HDAC5 (Q9UQL6 whole entry): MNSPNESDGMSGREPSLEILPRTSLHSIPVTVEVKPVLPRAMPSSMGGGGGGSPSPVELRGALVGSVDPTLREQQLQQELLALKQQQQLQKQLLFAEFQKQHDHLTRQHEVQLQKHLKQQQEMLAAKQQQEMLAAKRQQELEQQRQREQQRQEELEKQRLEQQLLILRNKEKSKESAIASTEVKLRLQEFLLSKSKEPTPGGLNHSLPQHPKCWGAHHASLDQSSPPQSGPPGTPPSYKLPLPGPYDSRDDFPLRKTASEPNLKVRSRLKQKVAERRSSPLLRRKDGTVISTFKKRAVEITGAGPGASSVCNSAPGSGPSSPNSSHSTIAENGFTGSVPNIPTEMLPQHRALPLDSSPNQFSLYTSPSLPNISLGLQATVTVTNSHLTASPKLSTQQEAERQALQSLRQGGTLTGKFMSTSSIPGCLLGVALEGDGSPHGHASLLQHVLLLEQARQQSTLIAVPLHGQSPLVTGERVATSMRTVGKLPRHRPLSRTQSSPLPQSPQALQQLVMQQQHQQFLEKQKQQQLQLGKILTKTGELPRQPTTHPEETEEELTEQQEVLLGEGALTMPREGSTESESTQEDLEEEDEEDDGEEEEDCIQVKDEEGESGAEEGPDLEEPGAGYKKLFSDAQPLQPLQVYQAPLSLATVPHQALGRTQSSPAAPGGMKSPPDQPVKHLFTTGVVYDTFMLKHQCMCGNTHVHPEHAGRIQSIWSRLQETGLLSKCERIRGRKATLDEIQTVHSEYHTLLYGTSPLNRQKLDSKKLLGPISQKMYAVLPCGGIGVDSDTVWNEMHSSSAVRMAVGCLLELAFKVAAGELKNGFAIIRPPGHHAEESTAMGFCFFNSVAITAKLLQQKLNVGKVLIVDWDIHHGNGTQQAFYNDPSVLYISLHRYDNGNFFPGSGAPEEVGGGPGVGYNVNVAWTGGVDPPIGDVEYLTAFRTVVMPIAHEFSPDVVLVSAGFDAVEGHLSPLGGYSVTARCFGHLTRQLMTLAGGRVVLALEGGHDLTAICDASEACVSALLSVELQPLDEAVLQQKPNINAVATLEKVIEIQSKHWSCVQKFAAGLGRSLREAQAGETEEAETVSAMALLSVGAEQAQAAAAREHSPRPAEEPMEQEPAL
Chain of HDAC1 (Q13547 whole entry): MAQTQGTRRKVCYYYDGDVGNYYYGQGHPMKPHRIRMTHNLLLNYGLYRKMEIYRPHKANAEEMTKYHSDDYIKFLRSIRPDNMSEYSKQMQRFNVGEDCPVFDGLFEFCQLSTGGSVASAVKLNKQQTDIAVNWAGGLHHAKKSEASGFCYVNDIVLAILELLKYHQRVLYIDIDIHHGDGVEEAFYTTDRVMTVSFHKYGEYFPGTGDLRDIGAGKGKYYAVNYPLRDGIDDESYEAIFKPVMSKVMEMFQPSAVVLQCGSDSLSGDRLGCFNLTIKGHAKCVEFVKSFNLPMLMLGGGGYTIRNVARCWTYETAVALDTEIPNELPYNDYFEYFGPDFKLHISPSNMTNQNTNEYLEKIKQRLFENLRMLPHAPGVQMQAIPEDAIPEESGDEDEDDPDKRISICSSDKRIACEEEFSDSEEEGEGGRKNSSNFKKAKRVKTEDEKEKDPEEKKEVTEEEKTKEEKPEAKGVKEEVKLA

| SMILES | IC50 (HDAC1) | IC50 (HDAC11) | inhibition at 100 µM (HDAC11; read-out: Percentage Inhibition HDAC11) | IC50 (HDAC4) | inhibition at 100 µM (HDAC4) | IC50 (HDAC5) | inhibition at 100 µM (HDAC5; read-out: Percentage Inhibition HDAC5) | IC50 (HDAC7) | inhibition at 100 µM (HDAC7) | IC50 (HDAC9) | inhibition at 100 µM (HDAC9) |
| --- | --- | --- | --- | --- | --- | --- | --- | --- | --- | --- | --- |
| C/C=C1\NC(=O)[C@H]2CSSCC/C=C/[C@H](CC(=O)N[C@H](C(C)C)C(=O)N2)OC(=O)[C@H](C(C)C)NC1=O [FK228, romidepsin] | 1.2 µM | > 100 µM | < 17% | > 100 µM | < 17% | > 100 µM | 17% | > 100 µM | < 17% | > 100 µM | < 17% |
| Nc1ccccc1NC(=O)c1ccc(CNC(=O)OCc2cccnc2)cc1 [MS-275, entinostat] | – | > 100 µM | – | – | – | – | – | – | – | – | – |
| O=C(CCCCCCC(=O)Nc1ccccc1)NO [SAHA, suberanilohydroxamic acid] | – | – | – | – | 34% | – | – | – | 27% | – | 37% |

Source: patent US10953011B2, “Methods of treating virally associated cancers with histone deacetylase inhibitors” (priority 2019, dated 2021)
